The subject of data set [1] is Ctenocephalides felis. Kind of data set: Ctenocephalides felis in vitro contact test with adult cat fleas. It is filed as in vivo. The settings on record: application rate 5 μg/cm^2 (500 g/ha), after 48 h, dead or moribund fleas. In outline: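 Tubes were coated with compound, and after the solvent dried off, 5–10 adult cat fleas were added to each. Tubes were kept horizontal at room temperature and ambient humidity for 48 h. Fleas that stayed motionless or moved uncoordinated after being knocked down were scored as dead or moribund.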

A further data set deals with Rhipicephalus sanguineus. Nature of the data set: Rhipicephalus sanguineus in vitro contact test with adult brown dog ticks. It is filed as in vivo. The settings on record: after 48 h, dead or moribund ticks. Here is the method: After the solvent has evaporated off, the tubes are populated with 5-10 adult dog ticks (Rhipicephalus sanguineus), sealed with a perforated plastic lid and incubated in a horizontal position in the dark at room temperature and ambient humidity. After 48 h, efficacy is determined. To this end, the ticks are knocked to the base of the tube and incubated on a hotplate at 45-50° C. for not more than 5 min. Ticks which remain motionless on the base or move in such an uncoordinated manner that they are unable to deliberately avoid the heat by climbing upwards are considered to be dead or moribund.

In a further data set the test system is Boophilus microplus. Kind of data set: Boophilus microplus injection test. It is filed as in vivo. The settings on record: application rate 20 μg/animal, after 7 days, laying of fertile eggs. As to the method: Solvent: dimethyl sulfoxide […] The animals are transferred into dishes and kept in a climate-controlled room. Efficacy is assessed after 7 days by laying of fertile eggs. Eggs which are not visibly fertile are stored in a climate-controlled cabinet until the larvae hatch after about 42 days.

The subject of data set [2] is Ctenocephalides felis. Kind of data set: Ctenocephalides felis oral test. Conditions: application rate 100 ppm in citrated cattle blood, kill after 2 days. Type of data set: in vivo. The text has this: Solvent: dimethyl sulfoxide […] Dilution with citrated cattle blood gives the desired concentration. About 20 unfed adult cat fleas (Ctenocephalides felis) are placed into a chamber which is closed at the top and bottom with gauze. A metal cylinder whose bottom end is closed with parafilm is placed onto the chamber. The cylinder contains the blood/active ingredient formulation, which can be imbibed by the fleas through the parafilm membrane.

For the next data set, the system named is Lucilia cuprina. Nature of the data set: Lucilia cuprina test. It is filed as in vivo. Conditions: application rate 100 ppm, L1 larvae, kill after 2 days. In outline:
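About 20 L1 larvae were placed in vessels of minced horsemeat containing compound, formulated in dimethyl sulfoxide and diluted with water to the test concentration. Kill (%) was scored after 2 days; 100% means all larvae dead, 0% none.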

For the next data set, the system named is Musca domestica. Kind of data set: Musca domestica test. Type of data set: in vivo. Conditions: application rate 100 ppm, adult houseflies, kill after 2 days. In outline: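 Compound dissolved in DMSO (10 mg per 0.5 ml), diluted with water to test concentration and applied to a sugar-solution sponge. Vessels held 10 adult houseflies; percent kill scored after 2 days (100% = all dead).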

The next data set deals with Phaedon cochleariae. Kind of data set: Phaedon cochleariae spray test. It is filed as in vivo. Conditions: larvae on Chinese cabbage leaf discs, after 7 days. Here is the method: Solvent: 78.0 parts by weight of acetone • • 1.5 parts by weight of dimethylformamide Emulsifier: alkylaryl polyglycol ether […] To produce further test concentrations, the formulation is diluted with emulsifier-containing water. Discs of Chinese cabbage leaves (Brassica pekinensis) are sprayed with an active ingredient formulation of the desired concentration and, after drying, populated with larvae of the mustard beetle (Phaedon cochleariae).

Another data set relates to Spodoptera frugiperda. Kind of data set: Spodoptera frugiperda spray test. It is filed as in vivo. Conditions: caterpillars on maize leaf discs, after 7 days. Here is the method:
Solvent: 78.0 parts by weight of acetone • • 1.5 parts by weight of dimethylformamide Emulsifier: alkylaryl polyglycol ether […] To produce further test concentrations, the formulation is diluted with emulsifier-containing water. Leaf discs of maize (Zea mays) are sprayed with an active compound formulation of the desired concentration and, after drying, populated with caterpillars of the armyworm (Spodoptera frugiperda).

Another data set relates to Tetranychus urticae. Kind of data set: Tetranychus urticae spray test, OP-resistant. Type of data set: in vivo. Conditions: all stages on bean leaf discs, after 6 days. Here is the method:
Solvent: 78.0 parts by weight of acetone • • 1.5 parts by weight of dimethylformamide Emulsifier: alkylaryl polyglycol ether […] To produce further test concentrations, the formulation is diluted with emulsifier-containing water. Discs of bean leaves (Phaseolus vulgaris) infested with all stages of the greenhouse red spider mite (Tetranychus urticae) are sprayed with an active ingredient formulation of the desired concentration.

The nature of data set [3]: logP determination by HPLC on reversed-phase column (EEC Directive 79/831 Annex V.A8). Type of data set: physicochemical. Conditions: Table 1; HPLC C18, acetonitrile/water with formic acid.
In data set [4] the test system is cattle ticks (Boophilus microplus) Parkhurst strain, SP-resistant. Nature of the data set: Boophilus microplus dip test. Type of data set: in vivo. Conditions: application rate 100 ppm, after 7 days, laying of fertile eggs. Here is the method:
Test animals: cattle ticks (Boophilus microplus) Parkhurst strain, SP-resistant
Solvent: dimethyl sulfoxide
10 mg of active ingredient are dissolved in 0.5 ml of dimethyl sulfoxide. To produce a suitable formulation, the active ingredient solution is diluted with water to the concentration desired in each case.
This active ingredient formulation is pipetted into tubes. 8-10 engorged adult female cattle ticks (Boophilus microplus) are transferred into a further tube with holes. The tube is immersed into the active ingredient formulation, and all the ticks are completely wetted. After the liquid has run out, the ticks are transferred on filter disks into plastic dishes and stored in a climate-controlled room.
Efficacy is assessed after 7 days by laying of fertile eggs. Eggs which are not visibly fertile are stored in a climate-controlled cabinet until the larvae hatch after about 42 days. An efficacy of 100% means that none of the ticks has laid any fertile eggs; 0% means that all the eggs are fertile.

The next data set deals with Meloidogyne incognita. Kind of data set: Meloidogyne incognita test. Conditions: application rate 20 ppm, nematicidal efficacy by formation of galls on lettuce after 14 days. It is filed as in vivo. As to the method: Solvent: 125.0 parts by weight of acetone
To produce a suitable active ingredient formulation, 1 part by weight of active ingredient is mixed with the stated amount of solvent and the concentrate is diluted to the desired concentration with water.
Vessels are filled with sand, active ingredient solution, an egg/larvae suspension of the southern root-knot nematode (Meloidogyne incognita) and lettuce seeds. The lettuce seeds germinate and the plants develop. The galls develop on the roots.
After 14 days, the nematicidal efficacy in % is determined by the formation of galls. 100% means that no galls were found; 0% means that the number of galls on the treated plants corresponds to the untreated control.

Where [5] appears, read: application rate 5 μg/cm^2 (500 g/ha).

`Cc1cc(C(F)(C(F)(F)F)C(F)(F)F)cc(C)c1-n1cc(-c2cnc(Cl)c(NC(=O)c3ccncc3)c2)cn1` [Example 12]: the efficacy with Ctenocephalides felis [1] worked out at 100%; in the data set with Rhipicephalus sanguineus (setting [5]), 80%; with Boophilus microplus, 100%; with Ctenocephalides felis [2], 100%; in the data set on Lucilia cuprina, 90%; with Musca domestica it was 100%. Besides, the efficacy in the data set with Phaedon cochleariae (application rate 100 g/ha), in the data set on Spodoptera frugiperda (application rate 100 g/ha) and in the data set with Tetranychus urticae (application rate 100 g/ha) was 100% in each case. Further, the lgP result in [3] was “lgP 3.97”.

With `Cc1cc(C(F)(C(F)(F)F)C(F)(F)F)cc(C(F)(F)F)c1-n1cc(-c2ccc(F)c(NC(=O)c3ccsc3)c2)cn1` [Example 31], the efficacy in [4] came out at 90%; with Boophilus microplus it was 100%; with Ctenocephalides felis [2] it was 100%; with Lucilia cuprina it was 100%; in the data set on Musca domestica it was 100%; in the data set on Phaedon cochleariae (application rate 100 g/ha), 100%. Further, the efficacy in the data set on Spodoptera frugiperda (application rate 100 g/ha) and with Tetranychus urticae (application rate 100 g/ha) was 100% each time.

For `Cc1cc(C(F)(C(F)(F)F)C(F)(F)F)cc(C)c1-n1cc(-c2ccc(Cl)c(NC(=O)c3ccncc3)c2)cn1` [Example 2], the efficacy (in the data set with Ctenocephalides felis [1]; in the data set with Rhipicephalus sanguineus (setting [5]); in [4]; in the data set on Boophilus microplus; in the data set with Ctenocephalides felis [2]; in the data set with Lucilia cuprina) was 100% each time. The efficacy with Musca domestica, in the data set on Phaedon cochleariae (application rate 500 g/ha), with Spodoptera frugiperda (application rate 100 g/ha), in the data set on Spodoptera frugiperda (application rate 500 g/ha), in the data set on Tetranychus urticae (application rate 100 g/ha) and with Tetranychus urticae (application rate 500 g/ha) was 100% in each case. The lgP result in [3] was “lgP 4.41”.

Take `Cc1cc(C(F)(C(F)(F)F)C(F)(F)F)cc(C(F)(F)F)c1-n1cc(-c2cc(NC(=O)c3ccc(Cl)nc3)ccc2F)cn1` [Example 2-4]: the efficacy in the data set with Boophilus microplus is on record as 100%; in the data set on Ctenocephalides felis [2], 95%; with Lucilia cuprina, 90%; in the data set with Meloidogyne incognita, 90%; with Phaedon cochleariae (application rate 100 g/ha) it was 100%; with Spodoptera frugiperda (application rate 100 g/ha), 100%.

For `Cc1cc(C(F)(C(F)(F)F)C(F)(F)F)cc(C)c1-n1cc(-c2ccc(F)c(NC(=O)c3ccc(F)cc3)c2F)cn1` [Example 7], the efficacy with Ctenocephalides felis [1] stood at 100%; with Rhipicephalus sanguineus (setting [5]), 80%; in the data set on Boophilus microplus, 100%; with Lucilia cuprina, 80%; in the data set on Phaedon cochleariae (application rate 100 g/ha), 100%; with Spodoptera frugiperda (application rate 100 g/ha), 83%. In the data set on Tetranychus urticae (application rate 100 g/ha), this compound returned an efficacy of 100%. In addition, in data set [3], the lgP result is “lgP 4.84”.

With `O=C(Nc1ccc(F)c(-c2cnn(-c3c(Br)cc(C(F)(C(F)(F)F)C(F)(F)F)cc3C(F)(F)F)c2)c1)c1ccncc1` [Example 2-13], the efficacy turned out to be 80% in the data set on Ctenocephalides felis [1]; 80% in the data set with Rhipicephalus sanguineus (setting [5]); 100% in data set [4]; 100% in the data set with Boophilus microplus; 100% with Ctenocephalides felis [2]; 100% in the data set with Lucilia cuprina. The efficacy with Musca domestica came to 100%; in the data set with Phaedon cochleariae (application rate 100 g/ha), 100%; in the data set with Spodoptera frugiperda (application rate 100 g/ha), 100%; in the data set with Tetranychus urticae (application rate 100 g/ha) it was 90%.

For the compound `Cc1cc(C(F)(C(F)(F)F)C(F)(F)F)cc(C)c1-n1cc(-c2ccc(F)c(NC(=O)c3ccncc3)c2)cn1` [Example 6], the efficacy with Ctenocephalides felis [1], in the data set on Rhipicephalus sanguineus (application rate 1 μg/cm^2 (100 g/ha)), in the data set on Boophilus microplus, in the data set on Ctenocephalides felis [2], in the data set on Lucilia cuprina and with Musca domestica was 100% in each case. The efficacy in the data set with Phaedon cochleariae (application rate 100 g/ha), in the data set with Spodoptera frugiperda (application rate 100 g/ha) and with Tetranychus urticae (application rate 100 g/ha) was 100% in each case. Further, the lgP entry in [3] is on record as “lgP 4.04”.

Regarding `Cc1cc(C(F)(C(F)(F)F)C(F)(F)F)cc(C(F)(F)F)c1-n1cc(-c2cc(NC(=O)c3ccc(C#N)nc3)ccc2F)cn1` [Example 2-3], the efficacy with Boophilus microplus is recorded as 100%; with Ctenocephalides felis [2] it was 100%; in the data set on Lucilia cuprina, 100%; in the data set on Musca domestica it was 100%; with Meloidogyne incognita it was 90%; in the data set with Phaedon cochleariae (application rate 100 g/ha) it was 100%. The figures for the efficacy in the data set on Spodoptera frugiperda (application rate 100 g/ha) and in the data set with Tetranychus urticae (application rate 100 g/ha) were 100% and 90%, respectively.
